We go through 2 molecules from patent US12268666B2, “Spray-dried dispersions, formulations, and polymorphs of (S)-5-amino-3-(4-((5-fluoro-2-methoxybenzamido)methyl)phenyl)-1-(1,1,1-trifluoropropan-2-yl)-1H-pyrazole-4-carboxamide” (Loxo Oncology, Inc., priority 2018, dated 2025).

As usually defined, the bioavailability is the share of a dose that reaches the circulation, judged against a reference dose that is usually intravenous. By AUC(0-t) is commonly meant exposure summed from dosing to a finite time, without extrapolation to infinity. A low value points to less exposure. What is called Cmax is the peak of the concentration-time curve. The AUC is concentration integrated over time.

Where two headings read alike, the source gives them in different places.

Series [1] is described as follows: Dog pharmacokinetics, crystalline compound in suspension (Example 15 Part A). The conditions noted are these: for bioavailability / AUC(0-t) / Cmax: both sexes, beagle, dog, plasma, 30 mg/kg; for bioavailability: oral, AUC0-t oral vs AUC0-inf of 2-mg/kg IV dose, read-out: F (bioavailability); for AUC(0-t) / Cmax: po, suspension in 0.5% HPMC. The class given is in vivo, beagle dogs. The procedure: Crystalline compound of Formula I is prepared as a suspension in 0.5% hydroxypropyl methylcellulose (IPMC) at 6 mg/mL for administration of 30 mg/kg; no correction factor is used for dose formulation. Three male and five female beagle dogs are administered a single PO gavage dose of 30 mg/kg compound of Formula I formulated as a suspension in 0.5% HPMC. All animals are administered the suspension of the crystalline compound of Formula I in fed and fasted states, following a 7-day washout period between dosing periods/feeding conditions. For both feeding conditions, access to food is removed at least 12 hours prior to dose administration. In Crossover #1, 6 dogs are fed a mix of canned and dry food approximately 45 minutes prior to dose administration (Group 1), and 2 dogs are administered the compound of Formula I in a fasted state and fed 4 hours after dosing (Group 2). In Crossover #2, the 2 dogs that are administered the compound of Formula I in the fasted state in Crossover #1 are fed a mix of canned and dry food approximately 45 minutes prior to dose administration (Group 3), and 5 of the dogs that are administered the compound of Formula I in the fed state in Crossover #1 are administered the compound of Formula I in a fasted state and fed 4 hours after dosing (Group 4) (Table 26). The same 3 males and 3 females are assigned to Groups 1 and 4 (with the exception of one female, which is assigned to Group 1 but is not included in Group 4), and the same 2 females are assigned to Groups 2 and 3.
Blood samples are collected via the jugular vein following PO doses at 0 (pre-dose), 0.5, 1, 2, 4, 8 24 and 48 hours into EDTAblood collection tubes. Samples are centrifuged at 3500 rpm for 10 minutes at 4-8° C. and the plasma fraction is stored frozen at −70° C. prior to bioanalytical analysis. Concentrations of the compound of Formula I in dog plasma are determined by LC-MS/MS following protein precipitation with acetonitrile. Non-compartmental pharmacokinetic parameters of the compound of Formula I are calculated by conventional methods using individual plasma concentration profiles over time and Microsoft Excel.

A short description of series [2]: In vivo dog bioavailability and pharmacokinetic study, reference vs SDD. Particulars: beagle, plasma, po, 30 mg/kg, dogs, suspension in 0.5% HPMC in water, mean ± SD. The procedure:
Dogs are fasted overnight prior to dosing (fasted) or fed canned food 45 min prior to dosing (fed). Samples for pharmacokinetic (PK) analysis are collected at 30 min, 1, 2, 4, 8, 24, and 48 hours post-dose. Blood samples are processed to plasma and stored frozen at −70° C. until analysis of the compound of Formula I concentrations. The concentration of the compound of Formula I in the plasma is determined by reverse phase HPLC with mass spectrometry detection. The compound of Formula I area under the curve is calculated by the trapezoidal method over the time course of the study. ANOVA with Dunett correction for multiple comparisons is used to determine statistical significant of differences from the reference formulation. The values of AUC and Cmax are reported as averages±standard deviation for each group of dogs in Table 24.

Where [3] appears, read: beagle dogs, single PO 30 mg/kg.
The mark [4] stands for this setting: beagle dogs, fasted, single PO 30 mg/kg.
Setting [5] is: beagle dogs, fed, single PO 30 mg/kg.

Regarding `COc1ccc(F)cc1C(=O)NCc1ccc(-c2nn([C@@H](C)C(F)(F)F)c(N)c2C(N)=O)cc1` [Crystalline compound of Formula I, (S)-5-amino-3-(4-((5-fluoro-2-methoxybenzamido)methyl)phenyl)-1-(1,1,1-trifluoropropan-2-yl)-1H-pyrazole-4-carboxamide], in series [1] (setting [3]), the “AUC0-t fold change (fed/fasted ratio)” value is 7.5 ± 3.3 and the “Cmax fold change (fed/fasted ratio)” value worked out at 4.8 ± 2.1. Also, in series [1] (fasted), the bioavailability stood at 5.09%. In addition, the bioavailability in series [1] (fed) is 29.7%. For the same molecule, in series [1] (setting [4]), the area under the curve AUC(0-t) amounted to 8.18 ± 3.68 µg·h/mL and the peak level (Cmax) was 0.597 ± 0.197 µg/mL. In series [1] (setting [5]), this molecule came in with an AUC(0-t) of 47.8 ± 21.3 µg·h/mL and a Cmax of 2.37 ± 0.679 µg/mL.
In series [2] (fasted), `COc1ccc(F)cc1C(=O)NCc1ccc(-c2nn([C@@H](C)C(F)(F)F)c(N)c2C(N)=O)cc1` [Reference, (S)-5-amino-3-(4-((5-fluoro-2-methoxybenzamido)methyl)phenyl)-1-(1,1,1-trifluoropropan-2-yl)-1H-pyrazole-4-carboxamide] returned an AUC of 11.3 µg·h/mL and a Cmax of 0.597 µg/mL. In series [2] (fed), this molecule had an AUC of 47.8 µg·h/mL and a peak concentration (Cmax) of 2.37 µg/mL.
